# Measured values: PMC11091220, “Metabolism-driven in vitro/in vivo disconnect of an oral ERɑ VHL-PROTAC” (Communications Biology, 2024)
# “And” between values parts separate entries of the source, which are not always exact repeats. Equal entries are not always repeated.
# What was measured:
# [1] = Metabolite identification in mouse hepatocytes; assay type: in vitro ADME; settings: in vitro mouse hepatocytes
# Experimental: CD-1 male mouse hepatocytes (BioreclamationIVT, M005052, lot:LRH) were thawed and warmed to 37 °C using Lebovitz’s L-15 medium and Cell yield/cell density and viability were assessed by a Nexcelom cell counter.
# Incubations were conducted on a Hamilton robot, 0.25 mL of the hepatocyte suspension (1 million cells/mL) was transferred for each incubation into Nunc 96-deepwell plate. Substrate (2.5 µL of 0.5 mM in acetonitrile) was added (final concentration of 5 µM) and then incubated for 60 minutes at 37 °C. The samples were quenched with an equal volume of acetonitrile, spun at 3500 rpm for 10 minutes and 0.2 mL of the supernatant was transferred into 0.6 mL of water for analysis by UHPLC-UV-HRAMS.
# [2] = Solution NMR hydrogen-bond donor shielding (A-NMR, temperature-dependent shift); assay type: physicochemical; settings: N-terminal amide HBD of (S,R,S)-AHPC
# Source text: 1. Supplementary Note 1: 3D Conformer of AZ’6421 (5) free in solution
# PROTACs are prone to intramolecular interactions that can substantially modify their drug-like properties.1 Here we used solution NMR spectroscopy to determine the 3D conformer of 5 free in solution. Initially, water/DMSO mixtures were utilised to enhance solubility of these highly lipophilic compounds in a relevant protic solvent. However, The 1D 1H-NMR signals of 5 in a mixture of DMSO […]
# pure DMSO was used for simplicity. By two 1D 1H-NMR based methods A-NMR2 and temperature- […]
# values are both indicative of HBD shielding, whereas the benzyl-amide NH donor of the VHL binding motif and the indole NH in the ERα binding substructure show values characteristic of solvent exposure. By 2D rotating-frame nuclear Overhauser effect (NOE) and 1H-13C long-range correlation (13C-HSQMBC) NMR spectroscopy we determined distance and tortional angle restraints for 3D structure calculation showing an intra-molecular H-bond to the ether oxygen proximal to the N-terminus of (S,R,S)-AHPC. Deletion of this ether oxygen from the N-terminus of (S,R,S)-AHPC produces a large chemical change of 0.6 ppm for the NH donor, whereas most other 1H signals remain unchanged (Figure S3). […]
# PGR mRNA = experiment: PD study in CTC174 PDX model, tumour PGR mRNA by qPCR; assay type: in vivo, mouse; settings: 100 mg/kg BID, 4 days, individual animals; listed as AZ'6421
# [3] = Mouse hepatocyte intrinsic clearance; assay type: in vitro ADME
# Experimental: Livers from CD-1 male mice weighing 30-35 g were digested and perfused using D-Hanks solution containing EDTA or collagenase. Once digested the liver was transferred to a petri dish and the hepatocytes were prepared by washing and centrifuging with a Leibovitz-15 medium containing 50% isotonic percoll. A cell viability >80% was required to progress the cells. The test compound was prepared to 10 mM in 100% DMSO and further diluted to 100 μM in 100% acetonitrile. The hepatocyte incubations were prepared in Leibovitz’s L-15 Medium pH 7.4 containing 1 million hepatocytes/mL and a final compound concentration of 1 µM. Cell viability was determined using a Cellometer Vision and >80% cell viability was required to proceed with the compound incubation. The compound/cell solution (250 µL) was incubated for 2 h at 37 °C and shaken at 900 rpm on an Eppendorf Thermomixer Comfort plate shaker. Samples (20 µL) were taken at 0.5, 5, 15, 30, 45, 60, 80, 100, and 120 min and quenched with 100 μL of 100% ice-cold acetonitrile. Samples were shaken at 800 rpm for 2 min and centrifuged at 4000 rpm for 20 min at 4 °C to pellet precipitated protein. The supernatant fraction was diluted 1:5 with deionised water, shaken at 1000 rpm for 2 min, and further diluted 1:1 with deionised water. Samples were analysed by LC-MS/MS[17].
compound,measurement,setting,value
Cc1ncsc1-c1ccc(CNC(=O)[C@@H]2C[C@@H](O)CN2C(=O)[C@@H](NC(=O)COCCCOCCCOc2cc(F)c([C@@H]3c4[nH]c5ccccc5c4C[C@@H](C)N3CC(C)(C)F)c(F)c2)C(C)(C)C)cc1 [Compound 5],major metabolic liability,[1],formation of a carboxylic acid metabolite 8
same,A-NMR value,[2],0.03
same,temperature-dependent perturbation,[2]; DMSO,-2.6 ppb/K
same,PGR mRNA expression in tumour (% of vehicle),PGR mRNA,12.5811% and 15.4178% and 10.0087% and 25.9295% and 45.882%
same,mouse hepatocytes stability,[3],9 µL/min/x10^6 cells
same,hepatocyte CLint at 1 µM,"[3]; male, CD-1, mouse, hepatocytes, pH 7.4, read-out: muHeps (mouse hepatocytes) clearance",9 µL/min/1e6 cells
same,muHeps (mouse hepatocytes) clearance,[3]; mouse,9.5 µL/min/1e6 cells
